Consider 29 compounds from US8053574B2, “Organic compounds” (Novartis AG, priority 2007, dated 2011).

What is called Ki is the dissociation constant of the complex between target and ligand, obtained from inhibition or displacement. Low values mean a stronger hold on the target, high ones a looser hold on the target.

PI3K γ, sequence (P48736 whole entry): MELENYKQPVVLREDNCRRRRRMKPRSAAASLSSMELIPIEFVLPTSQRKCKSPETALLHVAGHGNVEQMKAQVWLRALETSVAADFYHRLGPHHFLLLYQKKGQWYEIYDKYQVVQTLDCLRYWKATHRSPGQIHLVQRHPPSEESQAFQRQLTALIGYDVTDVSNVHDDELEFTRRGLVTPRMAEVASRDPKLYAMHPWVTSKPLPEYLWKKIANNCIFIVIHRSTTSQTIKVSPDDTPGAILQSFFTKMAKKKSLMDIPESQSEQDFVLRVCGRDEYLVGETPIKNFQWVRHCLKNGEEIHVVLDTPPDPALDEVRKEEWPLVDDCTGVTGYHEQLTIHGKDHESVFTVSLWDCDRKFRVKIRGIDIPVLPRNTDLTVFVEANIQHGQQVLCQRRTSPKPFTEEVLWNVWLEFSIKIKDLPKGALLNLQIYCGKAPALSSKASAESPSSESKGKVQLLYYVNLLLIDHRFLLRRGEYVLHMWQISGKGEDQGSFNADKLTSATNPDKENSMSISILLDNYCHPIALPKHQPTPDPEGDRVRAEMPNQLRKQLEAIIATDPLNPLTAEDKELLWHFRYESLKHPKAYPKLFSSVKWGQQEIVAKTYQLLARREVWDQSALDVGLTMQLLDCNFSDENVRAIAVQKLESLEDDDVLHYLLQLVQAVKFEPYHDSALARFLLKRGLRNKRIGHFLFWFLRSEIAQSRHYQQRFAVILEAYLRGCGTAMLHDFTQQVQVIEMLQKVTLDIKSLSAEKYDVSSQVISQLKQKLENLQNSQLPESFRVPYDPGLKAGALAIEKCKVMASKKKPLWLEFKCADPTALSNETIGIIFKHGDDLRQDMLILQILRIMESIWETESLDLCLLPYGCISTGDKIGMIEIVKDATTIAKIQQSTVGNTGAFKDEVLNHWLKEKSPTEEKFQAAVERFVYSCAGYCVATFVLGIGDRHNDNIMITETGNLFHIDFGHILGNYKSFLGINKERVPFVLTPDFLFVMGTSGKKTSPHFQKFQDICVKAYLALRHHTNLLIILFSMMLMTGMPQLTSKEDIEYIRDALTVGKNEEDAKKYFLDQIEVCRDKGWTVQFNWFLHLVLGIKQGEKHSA

The first assay addresses PI3K γ (Homo sapiens, UniProt P48736). The experiment in a line: PI3 kinase phosphorylation assay (Biological Method 1), Ki γ. It counts as biochemical. As to conditions: Table 1, compounds of formula X. Here is the method: The compounds of the invention were synthesized according to the examples provided above. PI3K inhibitory (IC50) values of the compounds were determined according to Biological Method 1.
Assay 1: Homogenous Solution Phase Assay
Compounds to be tested are dissolved in DMSO and directly distributed into 384-well flashplates at 1.25 μL per well. To start the reaction, 20 μL of 6 nM PI3 kinase are added into each well followed by 20 μL of 400 nM ATP containing a trace of radiolabeled ATP and 900 nM 1-alpha-phosphatidylinositol (PI). The plates are briefly centrifuged to remove any air gap. The reaction is performed for 15 minutes and then stopped by the addition of 20 μL of 100 mM EDTA. The stopped reaction is incubated overnight at RT to allow the lipid substrate to bind by hydrophobic interaction to the surface of the flashplate. The liquid in the wells is then washed away, and the labeled substrate is detected with scintillation counting.
Assay 2: One Step Solid Phase Assay
This method is similar to Assay 1 except that the lipid substrate (1-alpha-phosphatidylinositol (PI)) is first dissolved in a coating buffer and incubated on flashplate at room temperature overnight to allow the lipid substrate to bind by hydrophobic interaction to the surface of the flashplate. Unbound substrate is then washed away. On the day of assay, 20 μL of 6 nM PI3 kinase are added into each well followed by 20 μL of 400 nM ATP containing trace of radiolabeled ATP. Compounds are added together with enzyme and ATP to the lipid-coated plates. The plates are briefly centrifuged to remove any air gap. The reaction is performed for two to three hours. The reaction is stopped by addition of 20 μL of 100 mM EDTA or by immediate plate washing. Phosphorylated lipid substrate is detected by scintillation counting.
Assay 3: ATP Depletion Assay
Compounds to be tested are dissolved in DMSO and directly distributed into a black 384-well plate at 1.25 μL per well. To start the reaction, 25 μL of 10 nM PI3 kinase and 5 μg/mL 1-alpha-phosphatidylinositol (PI) are added into each well followed by 25 μL of 2 μM ATP. The reaction is performed until approx 50% of the ATP is depleted, and then stopped by the addition of 25 μL of KinaseGlo solution. The stopped reaction is incubated for 5 minutes and the remaining ATP is then detected via luminescence.
Regarding `CCn1cnc(CCNC(=O)Nc2cn3cc(-c4cncc(C(F)(F)F)c4)ccc3n2)c1` [drawing 59], the Ki is 0.028 µM.

`CC(C)n1nnc(CCNC(=O)Nc2cn3cc(-c4cncc(Cl)c4)ccc3n2)n1` [drawing 37]: the Ki was determined as 0.05 µM.

`CC(C)n1nnc(CCNC(=O)Nc2cn3cc(-c4cncc(C(F)(F)F)c4)ccc3n2)n1` [drawing 27]: the Ki was determined as 0.018 µM.

`CC(C)n1nnc(CCNC(=O)Nc2cn3cc(-c4cncc(C#N)c4)ccc3n2)n1` [drawing 19] had a Ki of 0.04 µM. This Ki is about 2.2-fold higher than that of the compound before.

`O=C(NCCn1nnc(C2CC2)n1)Nc1cn2cc(-c3cncc(C(F)(F)F)c3)ccc2n1` [drawing 67] had a Ki of 0.028 µM.

Compound `CCn1nnc(CCNC(=O)Nc2cn3cc(-c4cnn(C)c4)ccc3n2)n1` [drawing 93] showed a Ki of 0.456 µM. This Ki lies about 16-fold higher than the previous one.

With `CC(C)n1nnc(CCNC(=O)Nc2cn3cc(-c4cncc(OC5CCOCC5)c4)ccc3n2)n1` [drawing 39], the Ki was 0.147 µM.

Still in this assay, the particulars now being: Table 2, compounds of formula X.
Regarding `O=C(NCCc1nnn(CCF)n1)Nc1cn2cc(-c3cncc(C(F)(F)F)c3)ccc2n1` [Example 1-35, 1-{2-[2-(2-Fluoro-ethyl)-2H-tetrazol-5-yl]-ethyl}-3-[6-(5-trifluoromethyl-pyridin-3-yl)-imidazo[1,2-a]pyridin-2-yl]-urea], the Ki worked out at 0.002 µM.

In turn, `CC(C)n1nnc(CCNC(=O)Nc2cn3cc(-c4cncnc4)ccc3n2)n1` [Example 1-4, 1-[2-(2-Isopropyl-2H-tetrazol-5-yl)-ethyl]-3-(6-pyrimidin-5-yl-imidazo[1,2-a]pyridin-2-yl)-urea] returned a Ki of 0.165 µM.

As to `CC(C)n1nnc(CCNC(=O)Nc2cn3cc(-c4cncc(C#N)c4)ccc3n2)n1` [Example 1-3, 1-[6-(5-Cyano-pyridin-3-yl)-imidazo[1,2-a]pyridin-2-yl]-3-[2-(2-isopropyl-2H-tetrazol-5-yl)-ethyl]-urea], the Ki was 0.04 µM.

In turn, `Cc1cc(NC(=O)CCNC(=O)Nc2cn3cc(Br)ccc3n2)no1` [Example 1-46, 3-[3-(6-Bromo-imidazo[1,2-a]pyridin-2-yl)-ureido]-N-(5-methyl-isoxazo-3-yl)-propionamide] displayed a Ki of 4.98 µM.

`CCc1cncc(-c2ccc3nc(NC(=O)NCCc4nnn(C(C)C)n4)cn3c2)c1` [Example 1-22, 1-[6-(5-Ethyl-pyridin-3-yl)-imidazo[1,2-a]pyridin-2-yl]-3-[2-(2-isopropyl-2H-tetrazol-5-yl)-ethyl]-urea]: the Ki amounted to 0.025 µM.

Turning to `CCn1nnc(CCNC(=O)Nc2cn3cc(-c4cc(Cl)ccc4OC)ccc3n2)n1` [Example 1-14, 1-[6-(5-Chloro-2-methoxy-phenyl)-imidazo[1,2-a]pyridin-2-yl]-3-[2-(2-ethyl-2H-tetrazol-5-yl)-ethyl]urea], the Ki was 0.204 µM.

For the compound `CC(C)n1nnc(CCNC(=O)Nc2cn3cc(-c4cccc(F)c4)ccc3n2)n1` [Example 1-28, 1-[6-(3-Fluoro-phenyl)-imidazo[1,2-a]pyridin-2-yl]-3-[2-(2-isopropyl-2H-tetrazol-5-yl)-ethyl]urea], the inhibition constant (Ki) was 0.836 µM. This Ki lies about 4.1-fold higher than the previous one.

Consider `CCn1nnc(CCNC(=O)Nc2cn3cc(Br)ccc3n2)n1` [Example 1-45, 1-(6-Bromo-imidazo[1,2-a]pyridin-2-yl)-3-[2-(2-ethyl-2H-tetrazol-5-yl)-ethyl]-urea], for which the Ki amounted to 0.911 µM.

As for `CC(C)n1nnc(CCNC(=O)Nc2cn3cc(-c4cncc(C(F)(F)F)c4)ccc3n2)n1` [Example 1-7, 1-[2-(2-Isopropyl-2H-tetrazol-5-yl)-ethyl]-3-[6-(5-trifluoromethyl-pyridin-3-yl)-imidazo[1,2-a]pyridin-2-yl]-urea], affinity was put at a Ki of 0.018 µM.

Compound `CC(C)n1nnc(CCNC(=O)Nc2cn3cc(-c4cncc(Cl)c4)ccc3n2)n1` [Example 1-12, 1-[6-(5-Chloro-pyridin-3-yl)-imidazo[1,2-a]pyridin-2-yl]-3-[2-(2-isopropyl-2H-tetrazol-5-yl)-ethyl]urea] gave a Ki of 0.05 µM.

`CC(C)n1nnc(CCNC(=O)Nc2cn3cc(-c4ccccc4)ccc3n2)n1` [Example 1-31, 1-[2-(2-Isopropyl-2H-tetrazol-5-yl)-ethyl]-3-(6-phenyl-imidazo[1,2-a]pyridin-2-yl)-urea]: the Ki worked out at 0.423 µM.

Regarding `CCn1nnc(CCNC(=O)Nc2cn3cc(-c4cncc(C(F)(F)F)c4)ccc3n2)n1` [Example 1-34, 1-[2-(2-Ethyl-2H-tetrazol-5-yl)-ethyl]-3-[6-(5-trifluoromethyl-pyridin-3-yl)-imidazo[1,2-a]pyridin-2-yl]-urea], the Ki amounted to 0.007 µM.

`CC(C)(C)NC(=O)CCNC(=O)Nc1cn2cc(-c3cncc(OC4CCOCC4)c3)ccc2n1` [Example 1-18, N-tert-Butyl-3-(3-{6-[5-(tetrahydro-pyran-4-yloxy)-pyridin-3-yl]-imidazo[1,2-a]pyridin-2-yl}-ureido)-propionamide] came in with a Ki of 0.397 µM. This Ki lies about 57-fold higher than the previous one.

`Cc1ccc(-c2ccc3nc(NC(=O)NCCc4nnn(C(C)C)n4)cn3c2)cn1` [Example 1-24, 1-[2-(2-Isopropyl-2H-tetrazol-5-yl)-ethyl]-3-[6-(6-methyl-pyridin-3-yl)-imidazo[1,2-a]pyridin-2-yl]urea] had a Ki of 0.113 µM.

The assay is the same for the next values; noted with them: Table 3, compounds of formula XI.
Take `COc1ccc(-c2ccc3nc(NC(=O)NCCN(C)C)sc3c2)cn1` [Example 2-3, 1-(2-Dimethylamino-ethyl)-3-[6-(6-methoxy-pyridin-3-yl)-benzothiazol-2-yl]urea]: the Ki is 0.038 µM.

For `CCn1nnc(CCNC(=O)Nc2nc3ccc(-c4cncc(C(F)(F)F)c4)cc3s2)n1` [Example 2-9, 1-[2-(2-Ethyl-2H-tetrazol-5-yl)-ethyl]-3-[6-(5-trifluoromethyl-pyridin-3-yl)-benzothiazol-2-yl]-urea], affinity was put at a Ki of 0.06 µM.

On to `COc1ccc(-c2ccc3nc(NC(=O)NCCO)sc3c2)cn1` [Example 2-4, 1-(2-Hydroxy-ethyl)-3-[6-(6-methoxy-pyridin-3-yl)-benzothiazol-2-yl]-urea], for which the Ki is 0.038 µM.

`O=C(NCCc1nnn(CCF)n1)Nc1nc2ccc(-c3cncc(C(=O)N4CCOCC4)c3)cc2s1` [Example 2-7, 1-{2-[2-(2-Fluoro-ethyl)-2H-tetrazol-5-yl]-ethyl}-3-{6-[5-(morpholine-4-carbonyl)-pyridin-3-yl]-benzothiazol-2-yl}-urea]: the Ki amounted to 0.0055 µM. This Ki lies about 6.9-fold lower than the previous one.

The assay is the same for the next values; noted with them: Table 4.
In turn, `CCn1nnc(CCNC(=O)Nc2cn3nc(-c4cncc(F)c4)ccc3n2)n1` [Example 3-17, 1-[2-(2-Ethyl-2H-tetrazol-5-yl)-ethyl]-3-[6-(5-fluoro-pyridin-3-yl)-imidazo[1,2-b]pyridazin-2-yl]-urea] returned a Ki of 0.107 µM.

`CCn1nnc(CCNC(=O)Nc2cn3cc(-c4cncc(C(F)(F)F)c4)cnc3n2)n1` [Example 3-10, 1-[2-(2-Ethyl-2H-tetrazol-5-yl)-ethyl]-3-[6-(5-trifluoromethyl-pyridin-3-yl)-imidazo[1,2-a]pyrimnidin-2-yl]-urea] gave a Ki of 0.884 µM.

As to `CCn1nnc(CCNC(=O)Nc2nc3cc(-c4cccnc4)ccn3n2)n1` [Example 3-15, 1-[2-(2-Ethyl-2H-tetrazol-5-yl)-ethyl]-3-(7-pyridin-3-yl-[1,2,4]triazolo[1,5-a]pyridin-2-yl)-urea], the Ki came to 0.502 µM.

Consider `CCn1nnc(CCNC(=O)Nc2cn3cc(-c4cccnc4)ncc3n2)n1` [Example 3-6, 1-[2-(2-Ethyl-2H-tetrazol-5-yl)-ethyl]-3-(6-pyridin-3-yl-imidazo[1,2-a]pyrazin-2-yl)-urea], for which the Ki is 0.082 µM.
